Experimental data taken from patent publication US20150371009A1, “DRUG IDENTIFICATION MODELS AND METHODS OF USING THE SAME TO IDENTIFY COMPOUNDS TO TREAT DISEASE” (priority 2014, published 2015).

Assays:
[1] = test system: MCF7 breast cancer cell line (ER+); assay: In vitro cell line proliferation assay (MTS), MCF7; type: cell-based; settings: 96 hours; for inhibition of cell line proliferation: ER+ MCF7, escalating doses
Experimental: (§1) In vitro cell line proliferation assays. MCF7 and SK-BR-3 breast cancer cell lines were provided by the American Type Culture Collections (ATCC; Manassas, Va.) and cultured in complete medium (high glucose DMEM supplemented with 10% fetal bovine serum, L-glutamine, and pen/strep antibiotics). Drugs were purchased from Sigma-Aldrich (St. Louis, Mo.). Proliferation assays were performed as previously described with minor modifications. Cells were seeded at 5×10^3 cells per well in a 96 well plate in the morning. […] The plates were incubated at 37° C./5% CO2 for 96 hours. Cell proliferation was analyzed using MTS reagent (Promega; Madison, Wis.) according to manufacturer's protocol.
(§2) Tamoxifen was selected as a currently used breast cancer drug for comparison. […] Cell proliferation was measured using the MTS assay according to manufacturer's protocol.

[2] = test system: SK-BR-3 breast cancer cell line (ER−); assay: In vitro cell line proliferation assay (MTS), SKBR3; type: cell-based; settings: 96 hours; for inhibition of cell line proliferation: ER− SKBR3, escalating doses
Experimental: as §1, §2

[3] = patients; donepezil doses up to 23 mg/day; cited from earlier work

| Molecule | inhibition of cell line proliferation [1] | IC50 ([1]; ER+ MCF7 cells, complete medium, MTS) | inhibition of cell line proliferation [2] | IC50 ([2]; ER− SKBR3 cells, complete medium, MTS) | side effects / worst adverse drug reactions [3] |
| --- | --- | --- | --- | --- | --- |
| 4-hydroxytamoxifen [Drug 4OHtam] | dose dependent inhibition | 31.2 ± 4.9 µM | dose dependent inhibition | 55.7 ± 4.2 µM |  |
| COc1cc2c(cc1OC)C(=O)C(CC1CCN(Cc3ccccc3)CC1)C2 (racemic) [Donepezil, (RS)-2-[(1-benzyl-4-piperidyl)methyl]-5,6-dimethoxy-2,3-dihydroinden-1-one] | dose dependent inhibition |  | dose dependent inhibition |  |  |
| CC/C(=C(\c1ccccc1)c1ccc(OCCN(C)C)cc1)c1ccccc1 [Tamoxifen] |  |  |  |  | severe side effects including the development of endometrial cancer |
